Results on 40 compounds are retold here after PMC11200976, “Pitavastatin Calcium Confers Fungicidal Properties to Fluconazole by Inhibiting Ubiquinone Biosynthesis and Generating Reactive Oxygen Species” (Antioxidants, 2024).

Counter-ions that a name gives are not always drawn.

The first assay concerns C. albicans. Put plainly: Broth microdilution assay of synergistic lethality with 4 μg/mL FLC (recovery on drug-free YPD). In kind it is cell-based, Candida albicans.
Details: not given
As for `CNCC[C@H](Oc1cccc2ccccc12)c1cccs1.Cl` [Duloxetine (hydrochloride)], the Synergistic lethal concentrations came to 50 µM.

Staying with this assay, now noted: concentration of the compound that is synergistically lethal with 4 μg/mL FLC; C. albicans; recovery on drug-free YPD.
As to `C=CC(=O)Nc1cccc(Oc2nc(Nc3ccc(N4CCN(C)CC4)cc3)nc3ccsc23)c1` [Olmutinib], the Synergistic lethal concentrations was found to be 100 µM.
As to `O=C(O)c1cc(-c2ccc(F)cc2F)ccc1O` [Diflunisal], the Synergistic lethal concentrations amounted to 100 µM.
Turning to `CCOC(=O)C1=C(COCCN)NC(C)=C(C(=O)OC)C1c1ccccc1Cl.O=C(O)/C=C\C(=O)O` (stereo not shown) [Amlodipine (maleate)], the Synergistic lethal concentrations stood at 100 µM.
The same measure, in the same setting: in the case of `CN1C[C@H](CNC(=O)OCc2ccccc2)C[C@@H]2c3cccc4c3c(cn4C)C[C@H]21` [Metergoline] it was 100 µM; in that of `CCCCCNC(=N)N/N=C/c1c[nH]c2ccc(OC)cc12.O=C(O)/C=C\C(=O)O` [Tegaserod (maleate)], 6.25 µM; in that of `CC(C)n1nccc1-c1ncccc1COc1cccc(O)c1C=O` [Voxelotor], 100 µM.
Take `C[N+](C)(CC(=O)Nc1ccccc1)CC(=O)Nc1ccccc1.[Cl-]` [Carcainium (chloride)]: the Synergistic lethal concentrations amounted to 100 µM.
Consider `COC(=O)N[C@H](C(=O)N1CC2(CC2)C[C@H]1c1nc(-c2ccc3c(c2)C(F)(F)c2cc(-c4ccc5[nH]c([C@@H]6[C@H]7CC[C@H](C7)N6C(=O)[C@@H](NC(=O)OC)C(C)C)nc5c4)ccc2-3)c[nH]1)C(C)C` [Ledipasvir], for which the Synergistic lethal concentrations came to 100 µM.
Consider `COC(=O)c1ccc2c(c1)NC(=O)/C2=C(\Nc1ccc(N(C)C(=O)CN2CCN(C)CC2)cc1)c1ccccc1` [Nintedanib], for which the Synergistic lethal concentrations was 100 µM.
For `C1CCC(C(CC2CCCCN2)C2CCCCC2)CC1` (stereo not shown) [Perhexiline maleate], the Synergistic lethal concentrations amounted to 50 µM.
Take `CNCCCC12CCC(c3ccccc31)c1ccccc12.Cl` [Maprotiline (hydrochloride)]: the Synergistic lethal concentrations was found to be 50 µM.
For `Cc1ccc2c(c1)[C@]13CCCC[C@@H]1[C@H](C2)N(C)CC3.O=P(O)(O)O` [Dimemorfan (phosphate)], the Synergistic lethal concentrations worked out at 100 µM.
Consider `NC(=O)Cc1cccc(C(=O)c2ccccc2)c1N` [Nepafenac], for which the Synergistic lethal concentrations was 100 µM.
As for `CCCCCCCCN=c1ccn(CCCCCCCCCCn2ccc(=NCCCCCCCC)cc2)cc1.Cl.Cl` [Octenidine (dihydrochloride)], the Synergistic lethal concentrations is 1.5625 µM.
For `COC(=O)[C@H]1[C@H]2C[C@@H]3c4[nH]c5cc(OC)ccc5c4CCN3C[C@H]2C[C@@H](OC(=O)c2cc(OC)c(OC)c(OC)c2)[C@@H]1OC.Cl` [Reserpine (hydrochloride)], the Synergistic lethal concentrations was determined as 100 µM.
As to `CCCCOc1ccc(OCCCN2CCOCC2)cc1.Cl` [Pramocaine (hydrochloride)], the Synergistic lethal concentrations was 100 µM.
On to `CC1=C(C)C(=O)C(CCCCCCCCCC[P+](c2ccccc2)(c2ccccc2)c2ccccc2)=CC1=O.[Br-]` [Visomitin], for which the Synergistic lethal concentrations was determined as 50 µM.
`CC(C(=O)[O-])c1cccc(Oc2ccccc2)c1.CC(C(=O)[O-])c1cccc(Oc2ccccc2)c1.O.O.[Ca+2]` (stereo not shown) [Fenoprofen (Calcium hydrate)]: the Synergistic lethal concentrations came out at 100 µM.
Take `CSc1ccc2c(c1)N(CCC1CCCCN1C)c1ccccc1S2.Cl` (stereo not shown) [Thioridazine (hydrochloride)]: the Synergistic lethal concentrations was found to be 100 µM.
The same measure, in the same setting: the value for `C=CC(=O)Nc1cc(Nc2nccc(-c3cn(C4CC4)c4ccccc34)n2)c(OC)cc1N(C)CCN(C)C` [Almonertinib] was 25 µM; that for `Cc1ccc(C(=O)Nc2ccc(CN3CCN(C)CC3)c(C(F)(F)F)c2)cc1C#Cc1cnc2cccnn12` [Ponatinib] was 100 µM.
Take `C=CCc1ccc(O)c(-c2cc(CC=C)ccc2O)c1` [Magnolol]: the Synergistic lethal concentrations turned out to be 12.5 µM.
On to `O=C(O)/C=C/C(=O)O.O=C(c1ccc(F)c(F)c1Nc1ccc(I)cc1F)N1CC(O)([C@@H]2CCCCN2)C1.O=C(c1ccc(F)c(F)c1Nc1ccc(I)cc1F)N1CC(O)([C@@H]2CCCCN2)C1` [Cobimetinib (hemifumarate)], for which the Synergistic lethal concentrations came out at 50 µM.
Regarding `CN1[C@@H]2CC[C@H]1C[C@@H](OC(c1ccccc1)c1ccccc1)C2.CS(=O)(=O)O` [Benztropine (mesylate)], the Synergistic lethal concentrations was 100 µM.
For the compound `CN1CCC(=C2c3ccccc3C=Cc3ccccc32)CC1.Cl` [Cyproheptadine (hydrochloride)], the Synergistic lethal concentrations was found to be 50 µM.
As to `O=C(O)c1cc2ccccc2c(Cc2c(O)c(C(=O)O)cc3ccccc23)c1O.OCCOCCN1CCN(C(c2ccccc2)c2ccc(Cl)cc2)CC1` [Hydroxyzine (pamoate)], the Synergistic lethal concentrations was 100 µM.
On to `CCCCCCCCOc1ccccc1C(=O)Nc1ccc(C(=O)OCC[N+](C)(CC)CC)cc1.[Br-]` [Otilonium (bromide)], for which the Synergistic lethal concentrations was found to be 6.25 µM.
On the same count and under the same terms, the value for `CCC(C)(C)c1ccc(CC(C)CN2C[C@@H](C)O[C@@H](C)C2)cc1.Cl` (stereo partly shown) [Amorolfine (hydrochloride)] was 100 µM; that for `Cc1cc(Nc2ncc(Cl)c(Nc3ccccc3S(=O)(=O)C(C)C)n2)c(OC(C)C)cc1C1CCNCC1` [Ceritinib] was 12.5 µM.
Consider `CC(C)(CO)c1cc2cc(NC(=O)C3(c4ccc5c(c4)OC(F)(F)O5)CC3)c(F)cc2n1C[C@@H](O)CO` [Tezacaftor], for which the Synergistic lethal concentrations turned out to be 100 µM.
`COC(=O)[C@H]1[C@H]2C[C@@H]3c4[nH]c5cc(OC)ccc5c4CCN3C[C@H]2C[C@@H](OC(=O)c2cc(OC)c(OC)c(OC)c2)[C@@H]1OC` [Reserpine]: the Synergistic lethal concentrations was 50 µM.
`Cl.Cl.Fc1ccc(C(c2ccc(F)cc2)N2CCN(C/C=C/c3ccccc3)CC2)cc1` [Flunarizine (dihydrochloride)]: the Synergistic lethal concentrations turned out to be 50 µM.
As for `CCCCc1oc2ccc(NS(C)(=O)=O)cc2c1C(=O)c1ccc(OCCCN(CCCC)CCCC)cc1.Cl` [Dronedarone (Hydrochloride)], the Synergistic lethal concentrations turned out to be 100 µM.
Consider `CC(C)[C@@]1(NC(=O)[C@@H]2C[C@@H]3c4cccc5[nH]cc(c45)C[C@H]3N(C)C2)O[C@@]2(O)[C@@H]3CCCN3C(=O)[C@H](Cc3ccccc3)N2C1=O.CS(=O)(=O)O` [Dihydroergocristine (mesylate)], for which the Synergistic lethal concentrations was determined as 100 µM.
For the compound `O=c1[nH]c2ccccc2n1CCCN1CCC(n2c(=O)[nH]c3cc(Cl)ccc32)CC1` [Domperidone], the Synergistic lethal concentrations stood at 100 µM.
Same read-out and setting: the value for `C=CC(=O)Nc1cc(Nc2nccc(-c3cn(C4CC4)c4ccccc34)n2)c(OC)cc1N(C)CCN(C)C.Cl` [Almonertinib (hydrochloride)] was 12.5 µM; that for `O=C(O)CCc1nc(-c2ccccc2)c(-c2ccccc2)o1` [Oxaprozin] was 100 µM; that for `Cl.Fc1ccc([C@@H]2CCNC[C@H]2COc2ccc3c(c2)OCO3)cc1` [Paroxetine (hydrochloride)] was 50 µM.
Regarding `CN(C)CC/C=C1/c2ccccc2Sc2ccc(Cl)cc21` [Chlorprothixene], the Synergistic lethal concentrations was 100 µM.
